Data: patent publication US4803197A, “2,1-benzothiazepine-2,2-dioxide-5-carboxylic acid derivatives” (Ciba-Geigy Corporation, priority 1987, dated 1989)

Columns and labels:
[1] = test system: accumulation of neutrophils; assay: accumulation of neutrophils into carrageenin-impregnated polyurethane sponges in the rat; type: in vivo; settings: 25 mg/Kg p.o.
Excerpt: The inhibition of the chemotactic activation of neutrophils can also be determined in vivo by measuring the inhibition of the accumulation of neutrophils into carrageenin impregnated polyurethane sponges after oral administration in the rat.

bovine nasal cartilage [2] = assay: synovial catabolin-induced degradation of bovine nasal cartilage; type: cell-based; settings: at a concentration of about 1×10^-5 M
Excerpt: The inhibition of cartilage matrix degradation can also be similarly determined by measuring the decrease in proteoglycan release on synovial catabolin-induced degradation of bovine nasal cartilage.

human neutrophils = assay: inhibition of binding of f-MLP to human neutrophils in vitro; settings: at a concentration of about 1×10^-6 M; sodium salt
Method: The inhibition of the chemotactic activation of neutrophils is determined in vitro, e.g. by measuring the inhibition of the binding of f-MLP (formyl-methionylleucyl-phenylalanine) to human neutrophils in vitro as follows:
Human neutrophils are isolated by a modification of the procedure of Ferrante and Thong (J. Immunol. Methods 24:389, 1978). Red cells remaining in the neutrophil preparation are lysed by separate treatments with 0.83% NH4 Cl and 0.1M tris-HCl, pH 7.5. Neutrophils are incubated in Hanks' buffer at 0° C. for 60 minutes with 15 nM ^3 H-f-MLP and test compound. Aliquots of the incubates are filtered and total ^3 H-f-MLP bound is measured. Non-specific binding in the presence of excess non-radioactive f-MLP is substracted, and percent inhibition of binding by the test drug is calculated. Final concentrations of solvents such as dimethylacetamide or ethanol which may be used to dissolve the test compound cannot exceed 1% in the incubation mixture.

carrageenin pleurisy = assay: carrageenin-induced pleurisy model of inflammation in the rat; type: in vivo; settings: 10 mg/Kg p.o.
Method: Antiinflammatory activity is determined by measuring the inhibition of the edema and of the mononuclear cell influx after oral administration in the rat model in which pleurisy is first induced by injecting carrageenin into the pleural cavity, e.g. according to A. P. Almeida et al., J. Pharmacol. Exp. Therap. 214, 74 (1980).

[3] = test system: leukotriene and 5-HETE formation; assay: leukotriene and 5-HETE formation in whole blood after oral administration in rats; type: in vivo; settings: 50 mg/Kg p.o.
Method: Furthermore inhibition of the formation of leukotrienes and 5-HETE is determined e.g. by measuring their concentration in whole blood after oral administration in rats.

bovine nasal cartilage [4] = assay: bovine nasal cartilage-synovium co-culture model of cartilage matrix degradation; type: cell-based; settings: at a concentration of about 1×10^-5 M
Method: The inhibition of cartilage matrix degradation can be determined in vitro in the bovine nasal cartilage-synovium co-culture model of cartilage matrix degradation which is carried out as follows:
The proteoglycan matrix of bovine nasal septum cartilage is labeled in vitro by incorporation of ^35 S into glycosaminoglycan. Cartilage slices are incubated overnight in a sulfate free medium containing ^35 S-sodium sulfate. ^35 S-Labeled cartilage slices are co-cultured with normal synovium explants in multiwell tissue culture plates. After 4 days incubation a 100μl aliquot of medium is counted. Cartilage slices are hydrolyzed and a 100μl aliquot of cartilage hydrolysate is counted. The percent ^35 S released into the medium is determined and the percent inhibition of matrix degradation is calculated.

With `O=C(Nc1ccc(Cl)cc1)C1=C(O)CS(=O)(=O)N(Cc2ccc(Cl)cc2)c2ccccc21.[Na]` [Example 2, N-(4-chlorophenyl)-1-(4-chlorophenylmethyl)-1,3-dihydro-4-hydroxy-2,1-benzothiazepine-5-carboxamide-2,2-dioxide sodium salt] as the compound, how does the “accumulation of neutrophils into carrageenin-impregnated sponges” value [1] read?
Its value is “effectively diminishes”.

What about the “inhibition of release of proteoglycan in catabolin-induced degradation of cartilage” value (bovine nasal cartilage [2]) of the same compound?
Its value is “inhibits”.

And the “inhibition of the binding of f-MLP to human neutrophils” value (human neutrophils)?
Its value is “effective in inhibiting”.

What about the “inhibition of edema formation in the pleurisy model of inflammation” value (carrageenin pleurisy) of the same compound?
The value was “significantly inhibits”.

What about the “inhibition of mononuclear cell influx in the pleurisy model of inflammation” value (carrageenin pleurisy) of the same compound?
Its value is “significantly inhibits”.

What about the “inhibition of 5-HETE formation in whole rat blood” value [3] of the same compound?
The value was “effectively inhibits”.

And the “inhibition of leukotriene formation in whole rat blood” value [3]?
Its value is “effectively inhibits”.

What about the “inhibition of release of proteoglycan in synovium-induced degradation of cartilage” value (bovine nasal cartilage [4]) of the same compound?
Its value is “inhibits”.
